These compounds were tested against Protein Tat (Human immunodeficiency virus type 1 group M subtype B (isolate HXB2)) (UniProt P04608) (assay: HIV-1 Tat–TAR interaction blockers – biochemical, fluorescence polarization, FAM-labeled TAR RNA, counter-screen for Vif-APOBEC3G degradation inhibitor project, dose response (AID 1117361)). Conditions: Tat-TAR RNA binding.
Chain of Protein Tat (Human immunodeficiency virus type 1 group M subtype B (isolate HXB2)) (P04608 whole entry, looked up): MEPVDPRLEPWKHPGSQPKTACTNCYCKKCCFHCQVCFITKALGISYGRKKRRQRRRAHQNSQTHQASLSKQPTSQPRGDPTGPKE
For O=C1CC(c2ccco2)CC(O)=C1C=Nc1ccc(Br)cc1 (configuration not stated), the IC50 was 77.6 µM.
O=[N+]([O-])c1ccc(N/N=C/c2ccc(O)c(O)c2O)c(S(=O)(=O)N2CCOCC2)c1 was tested, and the IC50 was 34 µM.
Work on Cn1cccc1/C=C1/C(=O)NC(=O)N(Cc2ccccc2)C1=O yielded an IC50 of 67 µM.
For Cc1cccc(-n2c(Cc3cc(=O)[nH]c(=O)[nH]3)nnc2SC(C)C)c1, the IC50 was 28.2 µM.
Cc1ccc(C)n1-c1ccc(C(=O)O)cc1 showed an IC50 of 9.09 µM.
Work on O=[N+]([O-])c1c(NCCCO)cc(SCc2ccco2)c2nonc12 yielded an IC50 of 16.5 µM.
Compound O=C(COC(=O)c1ccccc1)Nc1ncc([N+](=O)[O-])s1 has an IC50 of 20.5 µM.
With Cc1cc(C)nc(N2CCC(C(=O)O)CC2)n1 the IC50 was 72.8 µM.
For CC(C)NC[C@@H](O)c1ccc(O)c(O)c1, the IC50 was 5.21 µM.
In the case of O=c1cc(-c2ccccc2Cl)c2c([nH]1)CCC2, the IC50 is reported as 18.8 µM.
For O=C1CC(c2ccco2)CC(O)=C1C=Nc1cc(Cl)ccc1Cl (configuration not stated), the IC50 was 7.33 µM.
In the case of CCC1C/C(=C/c2ccco2)C(=O)/C(=C/c2ccco2)C1 (configuration not stated), the IC50 is reported as 12.6 µM.
Compound CC(CNc1ccccc1O)C(=O)O (configuration not stated) has an IC50 of 32.7 µM.
Work on Nc1ccc2c(O)cc(S(=O)(=O)O)cc2c1 yielded an IC50 of 48 µM.
For O=C(CSc1nc(-c2ccco2)cc(C(F)(F)F)n1)N1CCc2ccccc2C1, the IC50 was 35.2 µM.
With COc1cccc(CNC(=O)CCNS(=O)(=O)c2cccs2)c1 the IC50 was 9.05 µM.
With NC(=O)Cn1c(=O)n(Cc2ccco2)c(=O)c2c3c(sc21)CCCCC3 the IC50 was 15.5 µM.
Cc1c(Br)c(O)c(Br)c2sc(=O)oc12 showed an IC50 of 25.3 µM.
CC(=O)Nc1ccc(S(=O)(=O)Nc2nc3ccccc3nc2Nc2ccc(N)cc2)cc1 gave an IC50 of 43.3 µM.
Cc1c(N=C2C=C(Br)C(=O)C(Br)=C2)c(=O)n(-c2ccccc2)n1C gave an IC50 of 11 µM.
Compound C=CCNc1nc2ccccc2nc1NS(=O)(=O)c1cccs1 has an IC50 of 45 µM.
Work on O=C(O)c1ccc(-n2cccc2/C=N\NC(=O)c2cc3cc(Br)ccc3o2)cc1 yielded an IC50 of 13.8 µM.
In the case of CC(C)CNC1=CC(=O)CC(c2ccco2)C1 (configuration not stated), the IC50 is reported as 31.3 µM.
Nc1ccc(Nc2ccccc2)c(S(=O)(=O)O)c1 showed an IC50 of 31.4 µM.
With O=C1NC(c2cccc(Br)c2)=N/C1=C\c1ccco1 the IC50 was 9.2 µM.
In the case of COc1cc(CNc2ccc(O)cc2)cc(Br)c1OCc1ccccc1, the IC50 is reported as 34.5 µM.
Compound COC(=O)CCC(=O)OC1(C)C(=O)C2=COC(c3ccc(OC)cc3)=CC2=C(Br)C1=O (configuration not stated) has an IC50 of 13 µM.
COc1ccc(CCNC(=O)c2ccc3nc(-c4ccco4)c(-c4ccco4)nc3c2)cc1OC was tested, and the IC50 was 4.32 µM.
For CN(C)c1ncc(C2=C(Cl)C(=O)C(N3CCCC3)=C(Cl)C2=O)s1, the IC50 was 1.54 µM.
In the case of COCCn1nnnc1C(c1cc2cc(OC)c(OC)cc2[nH]c1=O)N1CCN(c2ccc(O)cc2)CC1 (configuration not stated), the IC50 is reported as 94.3 µM.
Work on O=C1NC(=Nc2ccc(O)cc2)S/C1=C\C=C\c1ccco1 yielded an IC50 of 18.3 µM.
CCN1C(=O)/C(=C\c2ccco2)C(C(=O)OC)=C1C gave an IC50 of 81.8 µM.
Work on CCN(CC(=O)Nc1c(C(=O)OC)[nH]c2ccccc12)c1ccc2c(c1)OCO2 yielded an IC50 of 14.3 µM.
Compound C(=C\c1ccco1)/C=N/n1cnnc1 has an IC50 of 10.4 µM.
With Cc1cc(C)c(C(=O)/C=C/c2ccco2)c(=O)[nH]1 the IC50 was 12.1 µM.
Work on Cc1cnnc2ccc3c(no[n+]3[O-])c12 yielded an IC50 of 36.5 µM.
O=C(CSc1nnnn1-c1ccccc1)Nc1ncc2c(n1)CC(c1ccco1)CC2=O (configuration not stated) showed an IC50 of 58.5 µM.
Compound O=C(NCC1CCCO1)c1cc(-c2ccco2)nc2ccccc12 (configuration not stated) has an IC50 of 49.5 µM.
With COc1cc(NCCCCCCN)c2ncccc2c1OC the IC50 was 56.7 µM.
COC/C=C/C1=CC2=CC(=O)C(C)(OC(=O)CCC(=O)OC)C(=O)C2=CO1 (configuration not stated) was tested, and the IC50 was 8.1 µM.
O=[N+]([O-])c1cc(Br)c(O)c(C=Nc2ccc(N3CCOCC3)cc2)c1 was tested, and the IC50 was 77.5 µM.
Compound Cc1ccc(/C=C/C(=O)Nc2ccc([N+](=O)[O-])c(NC(=O)/C=C/c3ccc(C)o3)c2)o1 has an IC50 of 7.2 µM.
Work on O=C(Nc1ccn(-c2ccccc2)n1)c1ccccc1Br yielded an IC50 of 30.2 µM.
For COc1ccc(N=C2NC(=O)/C(=C\C=C\c3ccco3)S2)cc1, the IC50 was 6.32 µM.
Work on O=C1N=C(N2CCN(c3ccccc3)CC2)S/C1=C\c1ccco1 yielded an IC50 of 11.9 µM.
CCC(=O)N1N=C(c2ccc(NS(C)(=O)=O)cc2)CC1c1ccc(C)cc1 (configuration not stated) was tested, and the IC50 was 88.8 µM.
With Cc1ccc(C)c2[nH]c(=O)c(CN(Cc3ccc4c(c3)OCO4)Cc3nnnn3Cc3ccco3)cc12 the IC50 was 39.6 µM.
S=c1[nH]nc(COc2ccc3c(c2)OCO3)n1-c1ccccc1 gave an IC50 of 1.03 µM.
With CNc1ccccc(C(=O)/C=C/c2ccccc2OC)c1=O the IC50 was 6.69 µM.
Compound O=C(/C=C/c1cccs1)Nc1ccc(Br)cn1 has an IC50 of 31.4 µM.
NC(=S)N=Nc1c(O)cc(O)c2[nH]c(=O)ccc12 gave an IC50 of 37.2 µM.
Cc1ccc[n+](-c2[nH]c(=O)sc2/C=N/NC(=O)c2ccccc2[O-])c1 was tested, and the IC50 was 22.1 µM.
Compound O=[N+]([O-])c1cc(CN2CCOCC2)c2cccnc2c1O has an IC50 of 15.8 µM.
In the case of CCC(C)C(NC(=O)[C@@H](NC(=O)c1ccccc1F)C(C)C)C(=O)OC (some centres not stated), the IC50 is reported as 30.7 µM.
CC1=CN2C(=N)/C(=C/c3ccc([N+](=O)[O-])o3)C(=O)N=C2S1 gave an IC50 of 12.2 µM.
Work on N#Cc1c(-c2ccco2)cc(-c2ccccc2)[nH]c1=O yielded an IC50 of 5 µM.
For Cc1cc([N+](=O)[O-])cc2c1NC(c1ccccn1)C1CC=CC21 (configuration not stated), the IC50 was 49.1 µM.

Reference: PubChem BioAssay AID1117361 (Southern Research Institute, 2015)
